# Test results as given in US20260083851A1 (AVILAR THERAPEUTICS, INC., priority 2022, published 2026).
# Biological target: T1, ASGP receptor (biotinylated ASGPR) (Homo sapiens, UniProt P07306)
# T1 construct: biotin (biotinylated)
# T1 sequence (P07306 1-291): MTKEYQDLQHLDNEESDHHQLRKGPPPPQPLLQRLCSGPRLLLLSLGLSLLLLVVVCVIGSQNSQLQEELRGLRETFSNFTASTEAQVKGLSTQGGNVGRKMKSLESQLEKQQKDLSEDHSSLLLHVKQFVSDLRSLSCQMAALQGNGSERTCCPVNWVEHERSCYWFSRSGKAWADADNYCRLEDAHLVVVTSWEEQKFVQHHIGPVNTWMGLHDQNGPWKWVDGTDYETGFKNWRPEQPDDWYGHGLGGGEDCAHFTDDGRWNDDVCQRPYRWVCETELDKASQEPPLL
# Type: binding
# Conditions: SPR, Biacore 8K, 25° C.; Table 1A; read-out: ASGPR KD
row,Structure (SMILES),Kd [µM]
1,"O=C(NC[C@H]1OC[C@H](Nc2cncc(C(F)(F)F)n2)[C@@H](O)[C@H]1O)c1ncc2cc[nH]c2n1 [A78, N-(((2R,3R,4R,5S)-3,4-dihydroxy-5-((6-(trifluoromethyl)pyrazin-2-yl)amino)tetrahydro-2H-pyran-2-yl)methyl)-7H-pyrrolo[2,3-d]pyrimidine-2-carboxamide]",< 10
2,"O=C(O)COCC(=O)NC[C@H]1OC[C@H](Nc2cncc(C(F)(F)F)n2)[C@@H](O)[C@H]1O [A30, 2-(2-((((2R,3R,4R,5S)-3,4-dihydroxy-5-((6-(trifluoromethyl)pyrazin-2-yl)amino)tetrahydro-2H-pyran-2-yl)methyl)amino)-2-oxoethoxy)acetic acid]",< 10

# Second part, the compound after the results:
row,Kd [µM],Structure (SMILES)
1,< 10,"O=C(NC[C@H]1OC[C@H](Nc2cncc(C(F)(F)F)n2)[C@@H](O)[C@H]1O)c1cc(C(F)(F)F)n[nH]1 [A29, N-(((2R,3R,4R,5S)-3,4-dihydroxy-5-((6-(trifluoromethyl)pyrazin-2-yl)amino)tetrahydro-2H-pyran-2-yl)methyl)-3-(trifluoromethyl)-1H-pyrazole-5-carboxamide]"
2,< 10,"O[C@@H]1[C@H](O)[C@@H](Nc2cncc(C(F)(F)F)n2)CO[C@@H]1CN1CCN(Cc2ccccc2)CC1 [A9, (2R,3R,4R,5S)-2-((4-benzylpiperazin-1-yl)methyl)-5-((6-(trifluoromethyl)pyrazin-2-yl)amino)tetrahydro-2H-pyran-3,4-diol]"
3,< 10,"O[C@@H]1[C@H](O)[C@@H](Nc2cncc(C(F)(F)F)n2)CO[C@@H]1CN1CCNCC1 [A91, (2R,3R,4R,5S)-2-(piperazin-1-ylmethyl)-5-((6-(trifluoromethyl)pyrazin-2-yl)amino)tetrahydro-2H-pyran-3,4-diol]"
4,< 10,"O=C(NC[C@H]1OC[C@H](Nc2cncc(C(F)(F)F)n2)[C@@H](O)[C@H]1O)c1ncc[nH]1 [A40, N-(((2R,3R,4R,5S)-3,4-dihydroxy-5-((6-(trifluoromethyl)pyrazin-2-yl)amino)tetrahydro-2H-pyran-2-yl)methyl)-1H-imidazole-2-carboxamide]"
5,< 10,"O=C(NC[C@H]1OC[C@H](Nc2cncc(C(F)(F)F)n2)[C@@H](O)[C@H]1O)Nc1ccc(C(=O)O)cc1 [A113, 4-(3-(((2R,3R,4R,5S)-3,4-dihydroxy-5-((6-(trifluoromethyl)pyrazin-2-yl)amino)tetrahydro-2H-pyran-2-yl)methyl)ureido)benzoic acid]"
6,< 10,"O=C(NC[C@H]1OC[C@H](Nc2cncc(C(F)(F)F)n2)[C@@H](O)[C@H]1O)C1C[C@@H]2CC[C@H]1C2 (stereo partly drawn) [A18, (1S,4R)—N-(((2R,3R,4R,5S)-3,4-dihydroxy-5-((6-(trifluoromethyl)pyrazin-2-yl)amino)tetrahydro-2H-pyran-2-yl)methyl)bicyclo[2.2.1]heptane-2-carboxamide]"
7,< 10,"O[C@@H]1[C@H](O)[C@@H](Nc2cncc(C(F)(F)F)n2)CO[C@@H]1CNc1ncncn1 [A85, (2R,3R,4R,5S)-2-(((1,3,5-triazin-2-yl)amino)methyl)-5-((6-(trifluoromethyl)pyrazin-2-yl)amino)tetrahydro-2H-pyran-3,4-diol]"
8,< 10,"O=C(O)C1CCC(C(=O)NC[C@H]2OC[C@H](Nc3cncc(C(F)(F)F)n3)[C@@H](O)[C@H]2O)CC1 (stereo partly drawn) [A32, 4-((((2R,3R,4R,5S)-3,4-dihydroxy-5-((6-(trifluoromethyl)pyrazin-2-yl)amino)tetrahydro-2H-pyran-2-yl)methyl)carbamoyl)cyclohexane-1-carboxylic acid]"

# Same assay, conditions: SPR, Biacore 8K, 25° C.; Table 1B; read-out: ASGPR Kd
row,Kd [µM],Structure (SMILES)
1,< 10,"OC[C@H]1OC[C@H](Nc2cccc(OC(F)(F)F)n2)[C@@H](O)[C@H]1O [A143, (2R,3R,4R,5S)-2-(hydroxymethyl)-5-((6-(trifluoromethoxy)pyridin-2-yl)amino)tetrahydro-2H-pyran-3,4-diol]"
2,< 10,"OC[C@H]1OC[C@H](Nc2cccc(Br)n2)[C@@H](O)[C@H]1O [A153, (2R,3R,4R,5S)-5-((6-bromopyridin-2-yl)amino)-2-(hydroxymethyl)tetrahydro-2H-pyran-3,4-diol]"
3,< 10,"O[C@@H]1[C@H](O)[C@@H](Nc2cncc(F)n2)CO[C@@H]1COc1cncc(F)n1 [A154, (2R,3R,4R,5S)-5-((6-fluoropyrazin-2-yl)amino)-2-(((6-fluoropyrazin-2-yl)oxy)methyl)tetrahydro-2H-pyran-3,4-diol]"

# Same assay, conditions: SPR, Biacore 8K, 25° C.; Table 1C; read-out: ASGPR KD
row,Structure (SMILES),Kd [µM]
1,O=C(O)c1ccc(OC[C@H]2OC[C@H](Nc3nccc(C(F)(F)F)n3)[C@@H](O)[C@H]2O)nn1 [A325],< 10
2,"O[C@@H]1[C@H](O)[C@@H](Nc2cccc(C(F)(F)F)n2)CO[C@@H]1COc1ccc(Br)cc1 [A236, (2R,3R,4R,5S)-2-((4-bromophenoxy)methyl)-5-((6-(trifluoromethyl)pyridin-2-yl)amino)tetrahydro-2H-pyran-3,4-diol]",< 10
3,"O=C(O)c1ccc(-c2ccc(OC[C@H]3OC[C@H](Oc4cccc(C(F)(F)F)n4)[C@@H](O)[C@H]3O)cc2)nn1 [A221, 6-(4-(((2R,3R,4S,5S)-3,4-dihydroxy-5-((6-(trifluoromethyl)pyridin-2-yl)oxy)tetrahydro-2H-pyran-2-yl)methoxy)phenyl)pyridazine-3-carboxylic acid]",< 10
4,"O[C@@H]1[C@H](O)[C@@H](Oc2cccc(C(F)(F)F)n2)CO[C@@H]1CN1CCCCC1 [A233, (2R,3R,4S,5S)-2-(piperidin-1-ylmethyl)-5-((6-(trifluoromethyl)pyridin-2-yl)oxy)tetrahydro-2H-pyran-3,4-diol]",< 10
5,O=C(O)COCCOCC(=O)NC[C@H]1OC[C@H](Oc2cccc(C(F)(F)F)n2)[C@@H](O)[C@H]1O [A298],< 10
6,[O-][n+]1c(O[C@H]2CO[C@H](CSc3ccccc3)[C@H](O)[C@@H]2O)cccc1C(F)(F)F [A312],< 10
7,O[C@@H]1[C@H](O)[C@@H](Nc2cccc(C(F)(F)F)n2)CO[C@@H]1CN1CCCCC1 [A241],< 10
8,O=C1c2ccccc2CN1C[C@H]1OC[C@H](Nc2cccc(C(F)(F)F)n2)[C@@H](O)[C@H]1O [A277],< 10
9,C[C@H]1O[C@H](c2cc[nH]n2)[C@H](Oc2cccc(C(F)(F)F)n2)[C@@H](O)[C@H]1O [A332],< 10
10,[O-][S+](C[C@H]1OC[C@H](Oc2cccc(C(F)(F)F)n2)[C@@H](O)[C@H]1O)c1ccccc1 (some centres unmarked) [A311],< 10

# Further lines, results first:
row,Kd [µM],Structure (SMILES)
1,< 10,O=C1c2c(F)cccc2CN1C[C@H]1OC[C@H](Oc2cccc(C(F)(F)F)n2)[C@@H](O)[C@H]1O [A272]
2,< 10,"O=C(O)c1cnc(OC[C@H]2OC[C@H](Nc3cncc(C(F)(F)F)n3)[C@@H](O)[C@H]2O)cn1 [A187, 5-(((2R,3R,4R,5S)-3,4-dihydroxy-5-((6-(trifluoromethyl)pyrazin-2-yl)amino)tetrahydro-2H-pyran-2-yl)methoxy)pyrazine-2-carboxylic acid]"
3,< 10,O=S(=O)(C[C@H]1OC[C@H](Oc2cccc(C(F)(F)F)n2)[C@@H](O)[C@H]1O)c1ccccc1 [A310]
4,< 10,C[C@H]1O[C@@H](c2ncnc3c2ncn3Cc2ccccc2)[C@H](Oc2cccc(C(F)(F)F)n2)[C@@H](O)[C@H]1O [A335]
5,< 10,O[C@@H]1[C@H](O)[C@@H](Oc2cccc(C(F)(F)F)n2)CO[C@@H]1COc1cncnc1 [A289]
6,< 10,"N#Cc1ccc(OC[C@H]2OC[C@H](Nc3cncc(C(F)(F)F)n3)[C@@H](O)[C@H]2O)nn1 [A188, 6-(((2R,3R,4R,5S)-3,4-dihydroxy-5-((6-(trifluoromethyl)pyrazin-2-yl)amino)tetrahydro-2H-pyran-2-yl)methoxy)pyridazine-3-carbonitrile]"
7,< 10,"CC(C)(C)OC(=O)N1CCC(n2cc([C@H]3OC[C@H](Oc4cccc(C(F)(F)F)n4)[C@@H](O)[C@H]3O)nn2)CC1 [A220, tert-butyl 4-(4-((2R,3R,4S,5S)-3,4-dihydroxy-5-((6-(trifluoromethyl)pyridin-2-yl)oxy)tetrahydro-2H-pyran-2-yl)-1H-1,2,3-triazol-1-yl)piperidine-1-carboxylate]"
8,< 10,"O=C(O)c1ccc(N2CCN(C[C@H]3OC[C@H](Nc4cncc(C(F)(F)F)n4)[C@@H](O)[C@H]3O)CC2)nn1 [A207, 6-(4-(((2R,3R,4R,5S)-3,4-dihydroxy-5-((6-(trifluoromethyl)pyrazin-2-yl)amino)tetrahydro-2H-pyran-2-yl)methyl)piperazin-1-yl)pyridazine-3-carboxylic acid]"
9,< 10,C[C@H]1O[C@H](C#CCOc2ccc(C(=O)O)nn2)[C@H](Oc2cccc(C(F)(F)F)n2)[C@@H](O)[C@H]1O [A322]
10,< 10,C[C@H]1O[C@H](c2ccc3c(c2)CCC3)[C@H](Oc2cccc(C(F)(F)F)n2)[C@@H](O)[C@H]1O [A340]

# Same assay, conditions: SPR, Biacore 8K, 25° C.; Table 1D; read-out: ASGPR KD
row,Structure (SMILES),Kd [µM]
1,O[C@@H]1[C@H](O)[C@@H](Oc2cncc(C(F)(F)F)n2)CO[C@@H]1COc1cnccn1 [A421],< 10
2,CN(c1cncc(C(F)(F)F)n1)[C@H]1CNC[C@H](O)[C@@H]1O [A365],< 10
3,O[C@@H]1[C@H](O)[C@@H](Nc2cncc(C(F)(F)F)n2)CO[C@@H]1COc1cnc(C2CCNCC2)cn1 [A415],< 10
4,CCN1C[C@H](O)[C@H](O)[C@@H](N(C)c2cncc(C(F)(F)F)n2)C1 [A366],< 10

# More lines, now with the values ahead:
row,Kd [µM],Structure (SMILES)
1,< 10,O[C@@H]1[C@@H](Nc2cccc(C(F)(F)F)n2)CN(C2CCNCC2)C[C@@H]1O [A396]
2,< 10,O[C@@H]1[C@@H](Nc2cncc(C(F)(F)F)n2)CN(c2ccc(C(F)(F)F)cn2)C[C@@H]1O [A377]
3,< 10,CC(=O)NNC(=O)N1C[C@H](Oc2cccc(C(F)(F)F)n2)[C@@H](O)[C@@H](O)C1 [A357]

# Same assay, conditions: SPR, Biacore 8K, 25° C.; Table 1E; read-out: ASGPR KD
row,Kd [µM],Structure (SMILES)
1,< 10,O=C(O)c1cnc(OC[C@@]23CO[C@@H](O2)[C@H](Nc2cncc(C(F)(F)F)n2)[C@@H](O)[C@H]3O)cn1 [A452]
